Experimental data published in ChEMBL document CHEMBL4725396, “Discovery and optimization of pyrazolopyrimidine sulfamates as ATG7 inhibitors” (Bioorg Med Chem, 2020).

Experiments:
[1] = biological target: T1, Ubiquitin-like modifier-activating enzyme ATG7 (Homo sapiens, UniProt O95352); test: Inhibition of ATG7 in human 293HEK cells assessed as inhibition of ATG7:ATG8 thioester formation after 4 hrs by Western blot analysis; format: cell-based, HEK293
T1 sequence (O95352 whole entry): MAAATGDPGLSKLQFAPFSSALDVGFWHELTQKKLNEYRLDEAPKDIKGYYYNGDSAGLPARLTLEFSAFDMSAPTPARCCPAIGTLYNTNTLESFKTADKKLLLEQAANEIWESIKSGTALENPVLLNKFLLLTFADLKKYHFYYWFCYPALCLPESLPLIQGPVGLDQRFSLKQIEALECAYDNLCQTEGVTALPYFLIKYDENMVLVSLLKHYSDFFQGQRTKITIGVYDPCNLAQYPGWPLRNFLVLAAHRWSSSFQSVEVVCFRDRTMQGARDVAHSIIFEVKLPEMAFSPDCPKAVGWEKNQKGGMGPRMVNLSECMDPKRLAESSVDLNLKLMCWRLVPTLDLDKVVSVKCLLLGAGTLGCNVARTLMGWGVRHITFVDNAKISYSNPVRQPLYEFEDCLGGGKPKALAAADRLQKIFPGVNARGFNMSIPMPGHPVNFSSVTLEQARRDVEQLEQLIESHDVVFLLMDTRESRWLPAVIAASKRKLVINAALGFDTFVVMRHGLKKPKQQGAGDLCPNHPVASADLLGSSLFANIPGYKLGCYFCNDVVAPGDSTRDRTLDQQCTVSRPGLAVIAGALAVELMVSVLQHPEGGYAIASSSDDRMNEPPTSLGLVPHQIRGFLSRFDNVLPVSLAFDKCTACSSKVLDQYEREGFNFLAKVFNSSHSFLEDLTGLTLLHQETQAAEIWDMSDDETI

NCI-H1650 = test: Antiproliferative activity against human H1650 cells assessed as reduction in cell viability after 72 hrs by cell titer glow assay; format: cell-based; details: NCI-H1650, 72 h
[2] = biological target: T1, Ubiquitin-like modifier-activating enzyme ATG7; test: Inhibition of ATG7 in human 293HEK cells assessed as inhibition of ATG7:ATG8 thioester formation after 8 hrs by Western blot analysis; format: cell-based, HEK293
[3] = […] of autophagy in human H4 cells assessed as decrease in LC3B spot area by immunofluorescence assay; format: functional, cell-based
[4] = biological target: T1, Ubiquitin-like modifier-activating enzyme ATG7; test: Inhibition of recombinant His-tagged human ATG7 incubated for 105 mins in presence of GST-tagged ATG3 and Flag-tagged Gabarap and measured after 2 hrs by FRET assay relative to control
[5] = Inhibition of SAE (unknown origin)
SK-OV-3 [6] = test: […] of autophagy in human SKOV3 cells assessed as accumulation of p62 by immunofluorescence assay; format: functional, cell-based
[7] = Inhibition of NAE (unknown origin)
[8] = Inhibition of UAE (unknown origin)
SK-OV-3 [9] = test: […] of autophagy in human SKOV3 cells assessed as accumulation of NRB1 by immunofluorescence assay; format: functional, cell-based

Row | SMILES | IC50 [1] [nM] | EC50 (NCI-H1650) [nM] | IC50 [2] [nM] | IC50 [3] [nM] | IC50 [4] [nM] | EC50 (SK-OV-3 [6]) [nM] | IC50 [7] [nM] | IC50 [8] [nM] | EC50 (SK-OV-3 [9]) [nM] | IC50 [5] [nM]
1 | Nc1ncnc2c1c(OC(F)F)nn2[C@@H]1O[C@H](COS(N)(=O)=O)[C@@H](O)[C@H]1O | 479 | 10000 | 162 | 2300 | 29 | – | – | – | – | –
2 | Nc1ncnc2c1c(OC(F)F)nn2[C@@H]1O[C@H](COS(N)(=O)=O)[C@@H](O)[C@@H]1F | 453 | 18300 | – | – | 43 | – | – | – | – | –
3 | CC(C)Sc1nn([C@H]2C[C@H](O)[C@@H](COS(N)(=O)=O)O2)c2ncnc(N)c12 | 438 | > 50000 | 150 | 1090 | 27 | – | – | – | – | –
4 | Nc1ncnc2c1c(Sc1cn[nH]c1)nn2[C@@H]1O[C@H](COS(N)(=O)=O)[C@@H](O)[C@H]1O | 1280 | > 50000 | – | – | 16 | – | – | – | – | –
5 | Nc1ncnc2c1c(Sc1cccc(Cl)c1)nn2[C@H]1C[C@H](O)[C@H](COS(N)(=O)=O)O1 | – | > 50000 | – | 1370 | 190 | – | – | – | – | –
6 | CSc1nn([C@@H]2O[C@H](COS(N)(=O)=O)[C@@H](O)[C@@H]2F)c2ncnc(N)c12 | – | 5790 | 47 | 977 | 41 | – | – | – | – | –
7 | Cc1ccc(Sc2nn([C@H]3C[C@H](O)[C@H](COS(N)(=O)=O)O3)c3ncnc(N)c23)c(F)c1 | – | > 50000 | – | 659 | 62 | 3000 | > 1000 | > 1000 | 9400 | > 1000
8 | Nc1ncnc2c1c(CCc1ccccc1)nn2[C@@H]1O[C@H](COS(N)(=O)=O)[C@@H](O)[C@H]1O | – | > 50000 | – | – | 351 | – | – | – | – | –
9 | Cc1cccc(Sc2nn([C@H]3C[C@H](O)[C@@H](COS(N)(=O)=O)O3)c3ncnc(N)c23)c1 | 422 | > 50000 | – | 1260 | 95 | – | – | – | – | –
10 | CCSc1nn([C@@H]2O[C@H](COS(N)(=O)=O)[C@@H](O)[C@H]2O)c2ncnc(N)c12 | – | 15400 | 160 | – | 22 | – | – | – | – | –
11 | Cc1cccc(Sc2nn([C@@H]3O[C@H](COS(N)(=O)=O)[C@@H](O)[C@H]3O)c3ncnc(N)c23)c1 | – | > 50000 | 178 | – | 18 | – | – | – | – | –
12 | Nc1ncnc2c1c(OC(F)F)nn2[C@H]1C[C@H](O)[C@@H](COS(N)(=O)=O)O1 | – | > 50000 | 545 | 1770 | 100 | – | – | – | – | –
13 | Nc1ncnc2c1c(OCc1ccccc1)nn2[C@@H]1O[C@H](COS(N)(=O)=O)[C@@H](O)[C@H]1O | – | > 50000 | 1280 | – | 264 | – | – | – | – | –
14 | Nc1ncnc2c1cnn2[C@@H]1O[C@H](COS(N)(=O)=O)[C@@H](O)[C@H]1O | – | 75 | – | – | 457 | – | – | – | – | –
15 | CC(C)Sc1nn([C@@H]2O[C@H](COS(N)(=O)=O)[C@@H](O)[C@H]2O)c2ncnc(N)c12 | 1250 | > 50000 | 284 | 4230 | 17 | – | – | – | – | –
16 | CC(C)Sc1nn([C@@H]2O[C@@H](COS(N)(=O)=O)[C@@H](O)[C@H]2O)c2ncnc(N)c12 | 882 | > 50000 | 882 | 20100 | 129 | – | – | – | – | –
17 | Nc1ncnc2c1c(Sc1cccc(Cl)c1)nn2[C@@H]1O[C@H](COS(N)(=O)=O)[C@@H](O)[C@@H]1F | 198 | 39700 | 56 | 534 | 31 | – | – | – | – | –
18 | Nc1ncnc2c1c(Sc1ccc3c(c1)CCC3)nn2[C@H]1C[C@H](O)[C@H](COS(N)(=O)=O)O1 | – | > 50000 | – | 996 | 156 | – | – | – | – | –
19 | Nc1ncnc2c1c(O)nn2[C@@H]1O[C@H](COS(N)(=O)=O)[C@@H](O)[C@H]1O | – | > 50000 | – | – | 84 | – | – | – | – | –
20 | CSc1nn([C@H]2C[C@H](O)[C@@H](COS(N)(=O)=O)O2)c2ncnc(N)c12 | 280 | 10400 | 86 | 938 | 48 | 3000 | > 1000 | > 1000 | > 20000 | > 1000
21 | COc1nn([C@@H]2O[C@H](COS(N)(=O)=O)[C@@H](O)[C@H]2O)c2ncnc(N)c12 | – | 5940 | 335 | 2600 | 89 | – | > 1000 | > 1000 | – | > 50000
22 | CC(C)Sc1nn([C@@H]2O[C@H](COS(N)(=O)=O)[C@@H](O)[C@@H]2F)c2ncnc(N)c12 | 199 | 22400 | 56 | 727 | 20 | – | – | – | – | –
23 | CC(C)Oc1nn([C@@H]2O[C@H](COS(N)(=O)=O)[C@@H](O)[C@H]2O)c2ncnc(N)c12 | – | > 50000 | – | – | 2600 | – | – | – | – | –
24 | Nc1ncnc2c1c(Sc1cccc(Cl)c1)nn2[C@H]1C[C@H](O)[C@@H](COS(N)(=O)=O)O1 | 499 | > 50000 | – | 1150 | 104 | – | – | – | – | –
25 | CSc1nn([C@@H]2O[C@@H](COS(N)(=O)=O)[C@@H](O)[C@@H]2F)c2ncnc(N)c12 | – | > 50000 | – | 2530 | 145 | – | – | – | – | –
26 | CSc1nn([C@H]2C[C@H](O)[C@H](COS(N)(=O)=O)O2)c2ncnc(N)c12 | – | > 50000 | – | 1260 | 124 | – | – | – | – | –

Continued, in another order:

Row | IC50 [1] [nM] | EC50 (NCI-H1650) [nM] | IC50 [2] [nM] | IC50 [3] [nM] | IC50 [4] [nM] | EC50 (SK-OV-3 [6]) [nM] | IC50 [7] [nM] | IC50 [8] [nM] | EC50 (SK-OV-3 [9]) [nM] | SMILES | IC50 [5] [nM]
27 | 1280 | > 50000 | – | 6000 | 325 | – | – | – | – | CSc1nn([C@@H]2O[C@@H](COS(N)(=O)=O)[C@@H](O)[C@H]2O)c2ncnc(N)c12 | –
28 | 604 | > 50000 | 322 | – | 23 | – | – | – | – | Nc1ncnc2c1c(SCc1ccccc1)nn2[C@@H]1O[C@H](COS(N)(=O)=O)[C@@H](O)[C@H]1O | –
29 | 367 | > 50000 | – | 1360 | 52 | 2300 | > 1000 | > 1000 | > 20000 | CCSc1nn([C@H]2C[C@H](O)[C@@H](COS(N)(=O)=O)O2)c2ncnc(N)c12 | > 1000
30 | – | > 50000 | – | 533 | 80 | – | – | – | – | Cc1ccc(Sc2nn([C@H]3C[C@H](O)[C@@H](COS(N)(=O)=O)O3)c3ncnc(N)c23)c(F)c1 | –
31 | – | > 50000 | – | 710 | 66 | – | – | – | – | Nc1ncnc2c1c(Sc1ccc3c(c1)CCC3)nn2[C@H]1C[C@H](O)[C@@H](COS(N)(=O)=O)O1 | –
32 | – | > 50000 | 201 | – | 29 | – | – | – | – | Nc1ncnc2c1c(Sc1ccccc1)nn2[C@@H]1O[C@H](COS(N)(=O)=O)[C@@H](O)[C@H]1O | –
33 | 468 | > 50000 | – | 1920 | 57 | – | – | – | – | CC(C)Sc1nn([C@H]2C[C@H](O)[C@H](COS(N)(=O)=O)O2)c2ncnc(N)c12 | –
34 | – | 49400 | – | – | 255 | – | – | – | – | CCOc1nn([C@@H]2O[C@H](COS(N)(=O)=O)[C@@H](O)[C@H]2O)c2ncnc(N)c12 | –
35 | – | 31500 | – | – | 249 | – | – | – | – | COc1nn([C@H]2C[C@H](O)[C@@H](COS(N)(=O)=O)O2)c2ncnc(N)c12 | –
36 | 140 | 49100 | 51 | 483 | – | – | – | – | – | Cc1cccc(Sc2nn([C@@H]3O[C@H](COS(N)(=O)=O)[C@@H](O)[C@@H]3F)c3ncnc(N)c23)c1 | –
37 | – | 33900 | 317 | – | 177 | – | – | – | – | COc1nn([C@@H]2O[C@H](COS(N)(=O)=O)[C@@H](O)[C@@H]2F)c2ncnc(N)c12 | –
38 | 431 | 1540 | 83 | 1500 | 14 | – | – | – | – | CSc1nn([C@@H]2O[C@H](COS(N)(=O)=O)[C@@H](O)[C@H]2O)c2ncnc(N)c12 | –
